Laboratory results as given in patent US8778957B2, “CGRP receptor antagonists” (Merck Sharp & Dohme Corp., priority 2009, dated 2014).

These compounds were tested against recombinant human CL receptor/RAMP1 (Homo sapiens (Human), UniProt O60894+Q16602) (assay: Recombinant receptor binding assay (125I-hCGRP)). Conditions: membranes of HEK 293 cells expressing human CL receptor/RAMP1, 10 pM 125I-hCGRP.
Procedure: RECOMBINANT RECEPTOR: Human CL receptor (Genbank accession number L76380) was subcloned into the expression vector pIREShyg2 (BD Biosciences Clontech) as a 5′NheI and 3′ PmeI fragment. Human RAMP 1 (Genbank accession number AJ001014) was subcloned into the expression vector pIRESpuro2 (BD Biosciences Clontech) as a 5′NheI and 3′NotI fragment. HEK 293 cells (human embryonic kidney cells; ATCC #CRL-1573) were cultured in DMEM with 4.5 g/L glucose, 1 mM sodium pyruvate and 2 mM glutamine supplemented with 10% fetal bovine serum (FBS), 100 units/mL penicillin and 100 μg/mL streptomycin, and maintained at 37° C. and 95% humidity. Cells were subcultured by treatment with 0.25% trypsin with 0.1% EDTA in HBSS. Stable cell line generation was accomplished by co-transfecting 10 μg of DNA with 30 μg Lipofectamine 2000 (Invitrogen) in 75 cm^2 flasks. CL receptor and RAMP1 expression constructs were co-transfected in equal amounts. Twenty-four hours after transfection the cells were diluted and selective medium (growth medium+300 μg/mL hygromycin and 1 μg/mL puromycin) was added the following day. A clonal cell line was generated by single cell deposition utilizing a FACS Vantage SE (Becton Dickinson). Growth medium was adjusted to 150 μg/mL hygromycin and 0.5 μg/mL puromycin for cell propagation.
RECOMBINANT RECEPTOR BINDING ASSAY: Cells expressing recombinant human CL receptor/RAMP1 were washed with PBS and harvested in harvest buffer containing 50 mM HEPES, 1 mM EDTA and Complete protease inhibitors (Roche). The cell suspension was disrupted with a laboratory homogenizer and centrifuged at 48,000 g to isolate membranes. The pellets were resuspended in harvest buffer plus 250 mM sucrose and stored at −70° C. For binding assays, 20 μg of membranes were incubated in 1 ml binding buffer (10 mM HEPES, pH 7.4, 5 mM MgCl2, and 0.2% BSA) for 3 hours at room temperature containing 10 pM ^125I-hCGRP (GE Healthcare) and antagonist. The assay was terminated by filtration through 96-well GFB glass fiber filter plates (PerkinElmer) that had been blocked with 0.05% polyethyleneimine. The filters were washed 3 times with ice-cold assay buffer (10 mM HEPES, pH 7.4 and 5 mM MgCl2). Scintillation fluid was added and the plates were counted on a Topeount (Packard). Non-specific binding was determined and the data analysis was carried out with the apparent dissociation constant (Ki) determined by using a non-linear least squares fitting the bound CPM data to the equation below:
[formula] Where Y is observed CPM bound, Ymax is total bound counts, Ymin is non specific bound counts, (Ymax−Ymin) is specific bound counts, % Imax is the maximum percent inhibition, % I min is the minimum percent inhibition, radiolabel is the probe, and the Kd is the apparent dissociation constant for the radioligand for the receptor as determined by Hot saturation experiments.

Chain of recombinant human CL receptor/RAMP1 (Q16602 23-461): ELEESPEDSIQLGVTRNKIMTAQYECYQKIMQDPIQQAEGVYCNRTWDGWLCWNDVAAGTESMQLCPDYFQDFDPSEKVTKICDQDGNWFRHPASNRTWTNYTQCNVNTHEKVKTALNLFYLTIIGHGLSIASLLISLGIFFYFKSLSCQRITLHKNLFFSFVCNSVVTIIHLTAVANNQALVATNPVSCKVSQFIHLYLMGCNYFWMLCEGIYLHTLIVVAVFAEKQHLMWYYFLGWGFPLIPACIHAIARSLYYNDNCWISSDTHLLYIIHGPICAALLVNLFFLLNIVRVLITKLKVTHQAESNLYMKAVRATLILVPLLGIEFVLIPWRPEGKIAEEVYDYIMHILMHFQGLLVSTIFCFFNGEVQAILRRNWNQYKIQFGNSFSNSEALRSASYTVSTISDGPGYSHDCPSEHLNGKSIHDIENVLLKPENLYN
Chain of recombinant human CL receptor/RAMP1 (O60894 27-148): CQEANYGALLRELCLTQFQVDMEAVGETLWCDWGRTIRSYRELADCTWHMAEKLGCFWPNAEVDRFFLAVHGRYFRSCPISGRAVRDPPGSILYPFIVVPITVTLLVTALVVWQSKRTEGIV

Row | SMILES | Ki [nM]
1 | CN1C(=O)NC(=O)C12Cc1cc3ccc(CN4CCC(Cc5ccccc5)CC4)nc3cc1C2 (racemic) [Example 7, (±)-2-[(4-Benzylpiperidin-1-yl)methyl]-3′-methyl-6,8-dihydro-2′H,5′H-spiro[cyclopenta[g]quinoline-7,4′-imidazolidine]-2′,5′-dione] | 3800
2 | CN1C(=O)NC(=O)[C@]12Cc1cc3ccc(CN4C(=O)C(C)(C)Nc5ccccc54)nc3cc1C2 [Example 8, (7R)-2-[(3,3-Dimethyl-2-oxo-3,4-dihydroquinoxalin-1(2H)-yl)methyl]-3′-methyl-6,8-dihydro-2′H,5′H-spiro[cyclopenta[g]quinoline-7,4′-imidazolidine]-2′,5′-dione] | 35
3 | O=C1Nc2ncccc2C12Cc1cc3ccc(CN4CCc5c([nH]c6ccccc56)C4)nc3cc1C2 (stereo not shown) [Example 45] | 180
4 | CC(C)(C)OC(=O)N1CCN(Cc2ccc3cc4c(cc3n2)C[C@]2(C4)C(=O)Nc3ncccc32)CC1c1ccccc1 (stereo partly shown) [Example 61] | 58
5 | O=C1NC2(CCCC2)CN(Cc2ccc3cc4c(cc3n2)C[C@]2(C4)C(=O)Nc3ncccc32)C1c1ccccc1 (stereo partly shown) [Example 69] | 43
6 | O=C1CC2(CCN(Cc3ccc4cc5c(cc4n3)CC3(C5)C(=O)Nc4ncccc43)CC2)Oc2ccccc21 (stereo not shown) [Example 114] | 15000

The next compounds have a lower Ki than those just listed; values first:

Row | Ki [nM] | SMILES
7 | 0.77 | CC1(C)CN(Cc2ccc3cc4c(cc3n2)C[C@]2(C4)C(=O)Nc3ncccc32)[C@@H](Cc2ccccc2)C(=O)N1 [Example 3, (7S)-2-{[(2S)-2-Benzyl-5,5-dimethyl-3-oxopiperazin-1-yl]methyl}-6,8-dihydrospiro[cyclopenta[g]quinoline-7,3′-pyrrolo[2,3-b]pyridin]-2′(1′H)-one]
8 | 6.6 | O=C1Nc2ncccc2[C@@]12Cc1cc3ccc(CN4CCNCC4c4ccccc4)nc3cc1C2 (stereo partly shown) [Example 64]
9 | 0.73 | O=C1Nc2ncccc2[C@@]12Cc1cc3ccc(CN4CCNCC4)nc3cc1C2 [Example 76]
10 | 0.72 | O=C1N[C@H](Cc2ccccc2)CN(Cc2ccc3cc4c(cc3n2)C[C@]2(C4)C(=O)Nc3ncccc32)C1c1ccccc1 (stereo partly shown) [Example 84]
11 | 0.34 | O=C1NC2(CCCC2)CN(Cc2ccc3cc4c(cc3n2)C[C@]2(C4)C(=O)Nc3ncccc32)C1Cc1ccccc1 (stereo partly shown) [Example 87]
12 | 2.6 | O=C1NC2(CCCC2)CN(Cc2ccc3cc4c(cc3n2)C[C@]2(C4)C(=O)Nc3ncccc32)[C@@H]1Cc1ccccc1 [Example 88]
13 | 17 | CC1(Cc2ccccc2)C(=O)NC2(CCCC2)CN1Cc1ccc2cc3c(cc2n1)C[C@]1(C3)C(=O)Nc2ncccc21 (stereo partly shown) [Example 95]
